No end group written: not given here.
How the values were obtained:
[1] = test system: ING2; assay: Western blot of endogenous ING2 associated with the CEF of MEL cells; assay type: cell-based, Murine; settings: MEL cells; 200 J/m UV; NAC 5 mM 4 hours, wortmannin 200 nM and 5 μM, curcumin 100 μM
Description: FIG. 4. A) Exponentially growing MEL cells were irradiated with either 200 J/m of UV light or 10 Gy of gamma radiation. After 30 minutes the CEF was isolated and the subjected to SDS-PAGE followed by transfer of the separated proteins to a nitrocellulose membrane. Western blotting for endogenous ING2 and histone 4 proteins was performed. Representative western blots are shown. B) Exponentially growing MEL cells were incubated in the absence or presence of N-acetyl cysteine (NAC) (5 mM) for 4 hours prior to a control irradiation or exposed to 200 J/m of UV light before the isolation of the CEF. Differentiated MEL cells were incubated in the absence or presence of H2O2 (500 μM) for 15 minutes prior to the isolation of the CEF. Proteins in the CEF were subjected to SDS-PAGE followed by transfer to a nitrocellulose membrane. Western blotting for endogenous ING2 and histone 4 proteins was performed. Representative western blots are shown. C) MEL cells were preincubated with either vehicle, wortmannin (200 nM and 5 μM) or curcumin (100 μM) were irradiated with 200 J/m of UV light. After 30 minutes the CEF was isolated and proteins were subjected to SDS-PAGE followed by transfer to a nitrocellulose membrane. Western blotting for endogenous ING2 and histone 4 proteins was performed. Representative western blots are shown. D) The CEF from transiently transfected MEL cells with either pSuper or pSuper-IIβRNAi was prepared. Proteins in the CEF were subjected to SDS-PAGE followed by transfer to a nitrocellulose membrane. […] Proteins were analysed by standard western blotting procedures employing the following antibodies: anti-tubulin and anti-flag (both from Sigma), anti-actin (Chemicon International), anti-histone 4 (Upstate Biotechnology), anti-phospho p54, anti-phospho p46, anti-phospho p38, total p54, total p46 and total p38 (all from Cell Signalling Technology) anti-ING2, anti EGFP (Clontech), anti-type II β PIP kinase, anti-GST and anti-myc (both generated in house).

[2] = test system: nuclear PtdIns4P and PtdIns5P in differentiated MEL cells; assay: Mass assay of nuclear PtdIns4P and PtdIns5P in differentiated MEL cells; assay type: cell-based, Murine; settings: NAC 5 mM or BSO 100 μM for 4 hours, H2O2 500 μM for 15 minutes, vs control-treated cells
Description: B) Differentiated MEL cells were treated with NAC (5 mM) or BSO (100 μM), each for 4 hours, or H2O2 (500 μM) for 15 minutes prior to the isolation of intact nuclei. A mass assay was used to determine the levels of PtdIns4P and PtdIns5P. The results are expressed as % of control-treated differentiated MEL cells and are calculated from 3 independent experiments.
MEL, HEK 293 and HT1080 cells were maintained in routine culture using 10% FCS in DMEM. When required, differentiated MEL cells were prepared by the addition of 1.5% DMSO to the culture medium for a period of 4 days. MEL cells were transfected using Effectene (Qiagen), HEK 293 cells with calcium phosphate and HT1080 with LT1 (Mirus corporation). The following plasmids were used: pEGFP, pCDNA3 (both from Clontech), pCDNA3-Flag-MKK6+ and pCDNA3-Flag-MKK6-(from Dr. M. Schmidt, The Netherlands Cancer Institute), pSuper (from Dr. R. Agami, The Netherlands Cancer Institute), pCDNA3-EGFP-IpgD/IpgE, pCDNA3-EGFP-PIP kinase typeIIβ, and RNAi for type II β PIP kinase (termed pSuper-IIβRNAi). The targeting sequence for the latter was […]. Irradiation of the cells with 254 nm UV-C light (0-200 J/m) or gamma rays (0-40 Gy, from a Cesium 137 source) was performed using 6-well or 10 cm plastic petri dishes with a depth of medium covering the cells not exceeding 3-4 mm. Thereafter, the cells were returned to normal culture conditions for 30 minutes before subcellular fractionation was started. To determine long terms effects of UV and gamma irradiation the cells were returned to normal culture conditions for up to 48 hours.
MEL cells were washed, twice in ice cold PBS before their fractionation using a detergent-free hypotonic buffer. This method yields a mixed cytosol and membrane fraction and intact nuclei after separation using a sucrose cushion. MEL cell nuclei were fractionated into nucleoplasm and the CEF using modifications of a previously published method. Briefly, intact MEL cell nuclei were resuspended in ice cold hypotonic buffer (3 mM EDTA, 0.2 mM EGTA and 1 mM DTT pH 7.85, with protease inhibitors) followed by forced passage (12 times) through a 25 gauge needle. After centrifugation (1700 g) the supernatant (the nucleoplasm) was saved. The pellet (CEF) was washed twice before resuspending by sonication in 10 mM TrisHCl, 10% sucrose, 10 mM MgCl2 pH 7.4, with protease inhibitors. The protein content of all fractions was determined using the Bradford reagent (BioRad). PtdIns4P and PtdIns5P were measured using in vitro mass assays employing recombinant type I and type II PIP kinases, respectively. The product PtdIns(4,5)P2 was separated by TLC. The amount of radioactivity found in PtdIns(4,5)P2 was proportional to the amount of PtdInsP isomer in the neomycin affinity-purified lipid extract.
However, no studies have determined a role for nuclear phosphoinositides or defined downstream protein targets mediating phosphoinositide-stress activated pathways. To study changes in nuclear phosphoinositides in response to cellular stress, we used Murine erythroleukaemia (MEL) cells as a model system because preparations of nuclei from these cells have been proven to be of high purity. To visualise changes in phosphoinositides, various independent methods were used. The mass level of both PtdIns4P and PtdIns5P were measured using an assay that relies on the differential in vitro specificities of type I and type II PIP kinases. […] Gamma irradiation (10 Gy) led to a small (approximately 20%) decrease in the PtdIns4P level but no detectable change in the level of PtdIns5P in whole nuclei (FIG. 1a). To determine if nuclear PtdInsPs were regulated by oxidative stress we treated differentiated MEL cells with H2O2, BSO (L-buthionine[S,R]-sulphoximine, a glutamyl-cysteine synthetase inhibitor, which increases intracellular reactive oxygen species (ROS)) or NAC. (N-acetyl-cysteine, which increases cellular glutathione levels and cell' capability to deal with ROS). […]

[3] = test system: type II β PIP kinase; assay: Type II PIP kinase activity in immunoprecipitates using PtdIns5P as substrate; assay type: cell-based
Description: FIG. 3. A) MEL cells were either untransfected or transfected to express myc-type II b PIP kinase. After 40 hours the cells some of the cells were irradiated with 200 J/m of UV light before reculturing for varying times indicated in the figure. The cells were collected and endogenous type II PIP kinase was immunoprecipitated from whole cell lysates using an anti-pan type II b PIP kinase antibody or an anti-myc antibody. Type II PIP kinase activity in the immunoprecipitates was determined using PtdIns5P as the substrate. The results are calculated from 3 independent experiments.
To test this hypothesis endogenous type II PIP kinases were immunoprecipitated from control-treated and UV-irradiated MEL cells and their activities were measured using PtdIns5P as a substrate. […] As the antibody used to immunoprecipitate recognises all type II PIP kinase isoforms, we transfected MEL cells with myc-tagged type II β PIP kinase and measured its activity in immunoprecipitates in response to UV irradiation. […] UV irradiation is known to regulate both stress-activated protein kinases (SAPKs) and mitogen-activated protein kinases (MAPKs) and therefore we determined if any of these UV induced pathways impinged on type II β PIP kinase activity. […] Therefore we assessed whether activation of the p38 pathway alone could mediate type II β PIP kinase inhibition. […]

[4] = biological target: T1, PtdIns(4,5)P—F PH domain complex (Homo sapiens, UniProt P51178); assay: Displacement of PtdIns(4,5)P—F from the PH domain complex by unlabelled lipids; assay type: binding
T1 construct: GST-tagged PLCδ1 Pleckstrin homology (PH) domain protein expressed and purified in-house in E. Coli; made in house; host or cells: E. coli
T1 sequence (P51178 21-130 limits assumed): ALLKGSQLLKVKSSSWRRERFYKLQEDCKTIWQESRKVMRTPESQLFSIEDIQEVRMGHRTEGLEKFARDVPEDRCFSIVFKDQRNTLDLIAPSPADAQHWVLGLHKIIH
Description: FIG. 7. A 10 nM-1 uM PtdIns(4,5)P—F PH domain complex was incubated with increasing concentrations of unlabelled PtdIns(4,5) P2 (circles) and unlabelled PtdIns5P (squares). The unlabelled product disrupts the complex fully at 1 mM, substrate has no effect at 16 mM, (duplicates).
FIG. 20: A PtdIns(4,5)P—F PH domain complex (10 nM/500 nM) was incubated with increasing concentrations of unlabelled PtdIns(4,5) P2 (triangles) and unlabelled PtdIns4P (diamonds). The unlabelled product disrupts the complex fully at 750 nM, substrate has no effect at 5 μM.

[5] = test system: MEL cells; assay: MEL cell viability and cell cycle profile; assay type: cell-based, Murine; settings: compound alone
Description: Ethanol fixed cells were incubated with prodium iodide (20 μg/ml) and RNAse (10 μg/ml) before cell cycle analysis by flow cytometry. Proteins were analysed by standard western blotting procedures employing the following antibodies: anti-tubulin and anti-flag (both from Sigma), anti-actin (Chemicon International), anti-histone 4 (Upstate Biotechnology), anti-phospho p54, anti-phospho p46, anti-phospho p38, total p54, total p46 and total p38 (all from Cell Signalling Technology) anti-ING2, anti EGFP (Clontech), anti-type II β PIP kinase, anti-GST and anti-myc (both generated in house).
To investigate the sub-nuclear localisation of UV-induced nuclear PtdInsPs, we fractionated nuclei to generate nucleoplasm (containing nuclear membranes and soluble nuclear material) and the chromatin enriched fraction (CEF) (FIG. 1c inset). […] Thus, the PtdInsP pool present in the CEF is a target for regulation in response to cellular stress.

[6] = test system: PtdIns(4,5)P2 in HeLa cells; assay: PtdIns(4,5)P2 levels visualised with GFP-PH domain of PLCdelta1 probe in HeLa cells; assay type: cell-based; settings: transient, levels quickly recover
From the text: Changes in intracellular PtdIns(4,5)P2 levels following stimulation with neurokinin A were visualised in real time using a fusion protein of GFP and the PH domain of PLCdelta1 as a probe. GFP PLC delta 1 is a highly specific in vivo probe for PIP2 in cells.
HeLa cells were transiently transfected with an expression plasmid encoding a fusion protein of GFP and the PH domain of PLCdelta1.
HeLa cells were transiently transfected with an expression plasmid encoding a fusion protein of GFP and the pleckstrin homology domain of PLCdelta1. GFP PLC delta1 is a highly specific in vivo probe for PtdIns(4,5)P2 in cells. Results are in FIG. 10.

## CC(=O)N[C@@H](CS)C(=O)O [NAC, N-acetyl-cysteine]
[1]
  UV-induced translocation of endogenous ING2 to the CEF: did not block
[2]
  level of nuclear PtdIns4P: lowered
  level of nuclear PtdIns5P: lowered

## COc1ccc(C[C@H]2NC[C@H](O)[C@H]2OC(C)=O)cc1 [anisomycin]
[3]; treatment of cells
  inhibition of type II β PIP kinase activity: approximately 50%

## D-myo-Phosphatidylinositol 4-phosphate [PtdIns4P]
[4]; at 5 μM, PtdIns(4,5)P—F PH domain complex (10 nM/500 nM) (FIG. 20)
  effect on the complex: no effect

## CCCCS(=N)(=O)CCC(N)C(=O)O [BSO, L-buthionine[S,R]-sulphoximine]
[2]
  level of nuclear PtdIns4P: increased
  level of nuclear PtdIns5P: increased

## C[S+]([O-])c1ccc(-c2nc(-c3ccncc3)c(-c3ccc(F)cc3)[nH]2)cc1 (centres unmarked) [SB 203580]
[3]; pre-treatment of MEL cells
  UV light-induced inhibition of type II β PIP kinase activity: blocked

## PtdIns5P
[4]; 10 nM-1 uM PtdIns(4,5)P—F PH domain complex (FIG. 7)
  effect on the complex: no effect

## COC[C@H]1OC(=O)c2coc3c2[C@@]1(C)C1=C(C3=O)[C@@H]2CCC(=O)[C@@]2(C)C[C@H]1OC(C)=O [wortmannin]
[5]; MEL cells
  effect on the cell cycle profile: no effect
[5]
  effect on MEL cell viability: no effect

## neurokinin A (HKTDSFVGLM; ends and bridges not checked; UniProt P20366 98-107, looked up) [growth factor used to stimulate PtdIns(4,5)P2 depletion]
[6]
  PtdIns(4,5)P2 levels (GFP-PH probe at plasma membrane) after growth factor stimulation: depletion

## phosphatidylinositol 4,5-bisphosphate [PtdIns(4,5) P2]
[4]; 10 nM-1 uM PtdIns(4,5)P—F PH domain complex, duplicates (FIG. 7)
  concentration at which unlabelled lipid disrupts the complex fully: 1 mM
[4]; PtdIns(4,5)P—F PH domain complex (10 nM/500 nM) (FIG. 20)
  concentration at which unlabelled lipid disrupts the complex fully: 0.00075 mM
